Consider four molecules from PMC7890489, “Study on pharmacological properties and cell absorption metabolism of novel daidzein napsylates” (Royal Society Open Science, 2021).

In brackets after ≈: the same amount, converted by molar mass. Several values for one entry are separate records, joined by “and”; a condition that tells them apart may be missing. Equal entries are not always repeated. Where two headings read alike, the source gives them in different places.

What is called solubility is the concentration that dissolves in the medium under given conditions. Broadly, the melting point is the temperature, or range, at which the solid turns liquid.

For series [1] the following is noted: water with a pH of 7.8; cited from earlier work.
For series [2] the following is noted: cited from earlier work.
Details of series [3]: key: —: Cannot be detected. As to conditions: DAI ref 14; cited from earlier work.
Details of series [4]: method as in ref 9 = [9]; 9 Chou F 2005 Pharmacokinetics of daidzein and its precursors . Shenyang, People's Republic of China : Shenyang Pharmaceutical University . As to conditions: rats, intragastric administration of DAI solution; cited from earlier work.
The conditions of series [5]: at pH 7.4, 410 K, DAI ref 16, cited from earlier work.
Series [6] concerns vascular smooth muscle cells. The series is described as follows: Cytotoxicity by MTT assay. It is filed as cell-based. As to conditions: 300 ug/mL. The text has this: […] 2) Please list the full name of “HAVSMCs”at the first time it appears.
We have listed the full name of “HAVSMCs” as its first appearance in the abstract of […]
[…] 3) Please number the carbon atoms of the compounds.
[…] 4) Line 19-36: The abstract can reflect all aspects of the work, but it is a bit long and too detailed. The authors should rephrase the abstract for a more concise […]
We have rewritten the section of abstract and tried to make it as concise as possible.
[…] 5) As far as I'm aware, daidzein as a biologically active natural product has been used for curing angiocardiopathy. But whether the synthesized daidzeinnapsylates have significant toxic side effects remain unknown. So, in vitro cytotoxicity […]
A549, HeLa cells) need be performed.
The cytotoxicity of DD4 and DD5 was determined by MTT assay in our lab before […]
the two compounds was less than 10% at the concentration of 300 ug/mL. It is considered that the compound is not toxic to vascular smooth muscle cells at this concentration. Therefore, the dosing concentrations of DD4 and DD5 were 171 and 120 ug/mL, respectively, to investigate the absorption and metabolism of drugs by […]
6)Please attach the 1H-NMR specturm of DD4 and DD5 in supporting information;
Background: Tetrazolium dyes change colour on reduction, which living cells bring about.

Series [7] concerns human aortic vascular smooth muscle cells (HAVSMCs). In words: Cell metabolism in HAVSMCs by HPLC-MS. It is filed as in vitro ADME. As for the experimental part: (§1) HAVSMCs were obtained from resuscitation in cryopreservation tubes. HAVSMCs at passages 3–10 were seeded at a density of 10^5 in 6-well plates, 2 ml per well. The cells were cultured at 37°C in a 5% carbon dioxide incubator for 24 h to adhere to the cell wall; cells were cultured in serum-free DMEM for 24 h. The cells were synchronized, the supernatant was carefully aspirated and different concentrations of drug solution were added to the DMEM culture medium containing 10% serum. Equal amounts of DMEM culture medium without drugs were added to the blank group. Each group was set up in triplicate and further cultured. The cultures were terminated at 0.5, 1, 6, 12, 24 or 48 h. Cell culture supernatants were collected and stored at −80°C for further analysis.
Mobile phase: methanol-formic acid (1 : 1); flow rate: 0.5 ml min^−1; injection volume: 10 µl; wavelength: 254 nm; column temperature: 25°C.
A triple quadrupole tandem precision mass spectrometer (Agilent 6430) with an […] source and a negative ion mode was used for precise determination. The full mass spectrum data were obtained in the range of m/z 50–1000. The optimal mass spectrum parameters were as follows: the capillary voltage was 4.0 kV; the injection cone voltage was 35 V; the desolvation gas flow (N2) rate was 900 l h^−1; the injection cone gas flow (N2) rate was 50 l h^−1; the desolvation temperature was 350°C; the ion source temperature was 150°C; the collision gas in collision induced dissociation (CID) mode was helium with high purity; the inlet pressure was set at 40 psi; the CID collision energy of the standard was 5–35 eV and the cracking voltage was 135 V.
The cell supernatant was thawed and vortexed for 0.5 min. Cell supernatant (50 µl) and […] (50 µl) were added to a 2 ml centrifuge tube and vortexed for 3 min. Ammonium dihydrogen phosphate (100 µl, 0.4%) and 1 ml of ethyl acetate were added, and the sample was vortexed for 3 min. The mixture was centrifuged at 3000 r min^−1 for 10 min. The supernatant (95 µl) was aspirated and dried by N2 flow. […] (500 µl) was added and the sample was vortexed for 0.5 min. After filtration over a 0.45 µm organic membrane, HPLC-MS analysis was carried out.
Cells from the −80°C stock were thawed at room temperature, and 1 ml of thawed cell lysate was added into each well of a 6-well plate. From each group, 0.5 ml of cell lysate was taken; 50 µl of […], 100 µl of ammonium dihydrogen phosphate (0.4%) and 1 ml of ethyl acetate were added and samples were vortexed for 3 min. Lysate (95 µl) was aspirated and dried by N2 flow. […] (500 µl) was added and samples were vortexed for 0.5 min. After filtration over a 0.45 µm organic membrane, HPLC-MS analysis was carried out.

The nature of series [8]: Solubility in water, methanol, cyclohexane and ethyl acetate by HPLC. The series is classed as physicochemical. The settings on record: organic solvent or mixture, thermodynamic from solid, head: hexane (text: cyclohexane), 37 °C, shaken 48 h.
The subject of series [9] is human aortic vascular smooth muscle cells (HAVSMCs). The series is described as follows: Drug absorption in human aortic vascular smooth muscle cells (HPLC of cell supernatant). It is filed as in vitro ADME. The settings on record: for value (drug concentration in cell supernatant): dosing DD4 171, DD5 120 ug/mL. As for the experimental part:
as §1
Cell supernatants were thawed at room temperature and vortexed for 1 min. To 50 µl of the cell supernatant, 50 µl of methanol was added and the mixtures were mixed uniformly by eddy current. Ethyl acetate (1 ml) was added to the mixture and vortexed for 3 min. Ethyl acetate was separated by cooled centrifugation at 3000 r min^−1 and dried with nitrogen, and the residue was dissolved in 500 µl of methanol before injection for analysis.
Mobile phase: methanol-phosphoric acid solution (0.4%) (1 : 1); flow rate: 0.5 ml min^−1; injection volume: 10 µl; wavelength: 230 nm or 254 nm; column temperature 25°C.
Cell supernatants were thawed and vortexed for 1 min. Drug-added supernatant (50 µl) was treated by the same method as the pre-treatment of cell samples described in §4.2.
The absorption and utilization rates of DD4 and DD5 were calculated by the formula (6.1), with the reduction of drug concentration in the cell culture medium taken as the absorption amount of drug by cells. The initial drug concentration was c0, and the concentration in the cell supernatant at other time points is denoted as c. […] With increasing time, the cell absorption rate of the drug was maintained at about 60%. The main reason for the differences in absorption of DD4 and DD5 might be the length of the substituent group (methyl, ethyl) on the 7-position:6.1 absorption rate=c0−c/c0×100%.

Series [10] in a line: Solubility in water, methanol, cyclohexane and ethyl acetate by HPLC. The series is classed as physicochemical. As for the experimental part:
(§2) Mobile phase: acetonitrile-methanol (1 : 1); flow rate: 1.0 ml min^−1; injection volume: 20 µl; wavelength: 230 nm or 254 nm; column temperature: 25°C.
Five millilitres of water, methanol, cyclohexane and ethyl acetate was added to test tubes, and then samples (DD4 or DD5) were added. These solutions were shaken at constant temperature (37 ± 0.1)°C for 48 h. The supernatant was taken to determine its solubility with HPLC [14]. Solutions of tested sample beyond the linear concentration range were diluted with methanol for determination.

Series [11] can be described thus: Apparent lipid-water (n-octanol/water) partition coefficient by HPLC. The series is classed as physicochemical. Further details: key: —: Cannot be detected. On the procedure:
as §2
DD4 (5.1 mg) was dissolved in 50 ml of water-saturated n-octanol solution to prepare a solution with a concentration of 102 mg l^−1. Solution (2 ml) and water-saturated n-octanol solution (2 ml) were added to a plugged 10 ml tube. The prepared sample solution was placed in a shaker and shaken to equilibrium overnight in the dark at constant temperature (37 ± 0.1)°C. The lower aqueous phase was taken and analysed by HPLC after centrifugation at a speed of 3000 r min^−1 for 10 min. The drug concentration in the aqueous phase (ρw) was calculated via the standard curve according to the peak area. DD5 (4.5 mg) was dissolved in 50 ml of water-saturated n-octanol solution to prepare a solution with a concentration of 90 mg l^−1. Other methods were the same as those for DD4 [14].

Details of series [12]: method as in ref 23 = [23]; 23 Zhang ZT , Liu QG , Liu XH , Yang BL , Duan YF , Gao ZW , Yu KB 2002 Synthesis, crystal structure and biological activity of monomethylated daidzein sulfonates . Acta Chim. Sinica 60 , 1846 – 1853. As to conditions: compared with DAI; cited from earlier work.

With `O=C(O)COc1ccc(-c2coc3cc(OCCO)ccc3c2=O)cc1` [4-oxoacetic acid-7-hydroxyethoxy-daidzein], the solubility in water in series [1] is 54.28 µg/mL (≈ 152 µM).
As for `O=c1c(-c2ccc(O)cc2)coc2cc(O)ccc12` [DAI, 4′, 7-dihydroxyisoflavone], the “solubility in ethyl acetate” value in series [2] (Table 5, DAI ref 16) was 0.13 ± 0.11 µg/mL (≈ 0.511 µM). In addition, the “solubility in cyclohexane” value in [2] (cyclohexane, DAI ref 14) is on record as “could not be determined”. The “solubility in water” value in series [2] (water, DAI ref 14) is “too poor to be detected”. Besides, the lgP entry in [3] is “—^b”. Also, the “absolute bioavailability calculated on the basis of free DAI” value in series [4] is 12.8%. Further, in series [5], the “dissociation constant (percentage of drug prototypes) calculated value” is 10.41%, the “molecular polar surface area/two-dimensional calculated value” is 66.76 Å^2, the “molecular surface area/three-dimensional calculated value” is given as 315.07 Å^2 and the polarizability calculated value is 26.21. Moreover, the refractivity calculated value in series [5] was 69.70. Further, the H-bond accepter site in series [5] (first figure of site/count) is given as 5. Also, the H-bond accepter count in [5] (second figure of site/count) is 4.
On to `COc1ccc2c(=O)c(-c3ccc(OS(=O)(=O)c4ccc5ccccc5c4)cc3)coc2c1` [DD4], for which the melting point was 144 to 156 °C. The cell inhibition rate entry in series [6] is reported as “less than 10%”. Further, the “metabolite identified (chemical name)” value in [7] (HAVSMC lysate, 24 h incubation, HPLC-MS negative ion mode) is reported as “daidzein-4'-naphthalene sulphonate”. The “metabolites found in cell lysate” value in [7] (HAVSMCs incubated 24 h, HPLC-MS, also found in supernatant) is listed as “Four metabolites were found”. The “redox products in HAVSMCs” value in series [7] (preliminary analysis of metabolic components) was “no redox products”. Also, the solubility at 48 h in series [8] worked out at 509 ± 49 µg/mL (≈ 1110 µM). Also, the “time of peak (maximum) absorption” value in series [9] stood at 1 h. In addition, the “value (drug concentration in cell supernatant)” value in [9] (0.5 h) is 96.97 ± 15.57 µg/mL. In addition, the “value (drug concentration in cell supernatant)” value in [9] (1 h) was 20.62 µg/mL and 20.62 ± 0.71 µg/mL. Further, in series [9] (6 h), the “value (drug concentration in cell supernatant)” value was determined as 110.70 ± 4.98 µg/mL. The “value (drug concentration in cell supernatant)” value in series [9] (12 h) was 82.48 ± 3.00 µg/mL. In [9] (24 h), the “value (drug concentration in cell supernatant)” value stood at 71.01 ± 34.97 µg/mL. For the same molecule, the “value (drug concentration in cell supernatant)” value in [9] (48 h) was 111.28 ± 1.72 µg/mL. Further, the “maximum cell absorption rate relative to DAI” value in series [9] (compared with DAI) is 4.3 times and 4.3–4.5 times. For the same molecule, the “absorptivity (maximum absorption rate)” value in [9] (maximum (at 1 h)) is listed as 87.97%. Moreover, in [10] (ethyl acetate, 37 °C, shaken 48 h, HPLC, read-out: solubility ethanoate (ethyl acetate)), the solubility at 48 h was found to be 36300 µg/mL (≈ 79200 µM). The solubility at 48 h in series [10] (organic solvent or mixture, thermodynamic from solid, methanol, 37 °C, shaken 48 h, HPLC, read-out: solubility methanol) stood at 824 ± 19.3 µg/mL (≈ 1800 µM). Moreover, the solubility at 48 h in series [10] (thermodynamic from solid, water, 37 °C, shaken 48 h, HPLC, read-out: solubility water) was less than 0.059 µg/mL. The “solubility in water” value in series [10] (water, 37 °C) was “too poor to be detected”. The solubility at 48 h in [10] (water, Table 5, read-out: solubility in water) is less than 0.059 µg/mL. Moreover, the lgP entry in series [11] (37 °C, HPLC of aqueous phase) is “—^b”. The “apparent lipid-hydro partition coefficient found” value in [11] (HPLC) is recorded as “—^b”.
Consider sodium daidzein sulphonate, for which the anti-hypoxic-ischaemic effect result in series [12] is reported as “obviously better than that of DAI”.
